Three compounds from PubChem BioAssay AID1259407 (Chemical Carcinogenesis Research Information System (CCRIS), 2018) can be followed below.

Activity calls are given as the source filed them. The rule behind the calls is not given here.

This data set relates to CCRIS mutagenicity, Ames/micronucleus/aberration tests. The experiment in a line: CCRIS mutagenicity studies.
[1] abbreviates: Test System: AMES SALMONELLA TYPHIMURIUM, Strain/Indicator: TA100, Metabolic Activation: NONE, Method: STANDARD PLATE.

With `C1CCC2CCCCC2C1` (stereo not drawn), the mutagenic call (End Point: IN VIVO MICRONUCLEUS, Test System: PERIPHERAL BLOOD LYMPHOCYTES, Species: MOUSE, Strain/Sex: B6C3F1/FEMALE, Route: INHALATION) is “inactive; negative”; the mutagenic call (End Point: IN VIVO MICRONUCLEUS, Test System: PERIPHERAL BLOOD LYMPHOCYTES, Species: MOUSE, Strain/Sex: B6C3F1/MALE, Route: INHALATION) is “active; positive”; the mutagenic call (Test System: AMES SALMONELLA TYPHIMURIUM, Strain/Indicator: TA97, Metabolic Activation: HAMSTER, LIVER, S-9 (10%), AROCLOR 1254, Method: PREINCUBATION) is “inactive; negative”; the mutagenic call (Test System: AMES SALMONELLA TYPHIMURIUM, Strain/Indicator: TA97, Metabolic Activation: HAMSTER, LIVER, S-9 (30%), AROCLOR 1254, Method: PREINCUBATION) was “inactive; negative”; the mutagenic call (Test System: AMES SALMONELLA TYPHIMURIUM, Strain/Indicator: TA97, Metabolic Activation: NONE, Method: PREINCUBATION) was “inactive; negative”; the mutagenic call (Test System: AMES SALMONELLA TYPHIMURIUM, Strain/Indicator: TA97, Metabolic Activation: RAT, LIVER, S-9 (10%), AROCLOR 1254, Method: PREINCUBATION) is “inactive; negative”. The mutagenic call (Test System: AMES SALMONELLA TYPHIMURIUM, Strain/Indicator: TA97, Metabolic Activation: RAT, LIVER, S-9 (30%), AROCLOR 1254, Method: PREINCUBATION) is “inactive; negative”; the mutagenic call (Test System: AMES SALMONELLA TYPHIMURIUM, Strain/Indicator: TA98, Metabolic Activation: HAMSTER, LIVER, S-9 (10%), AROCLOR 1254, Method: PREINCUBATION) is “inactive; negative”; the mutagenic call (Test System: AMES SALMONELLA TYPHIMURIUM, Strain/Indicator: TA98, Metabolic Activation: HAMSTER, LIVER, S-9 (30%), AROCLOR 1254, Method: PREINCUBATION) was “inactive; negative”; the mutagenic call (Test System: AMES SALMONELLA TYPHIMURIUM, Strain/Indicator: TA98, Metabolic Activation: HAMSTER, LIVER, S-9, AROCLOR 1254, Method: STANDARD PLATE) is “inactive; negative”; the mutagenic call (Test System: AMES SALMONELLA TYPHIMURIUM, Strain/Indicator: TA98, Metabolic Activation: NONE, Method: PREINCUBATION) was “inactive; negative”; the mutagenic call (Test System: AMES SALMONELLA TYPHIMURIUM, Strain/Indicator: TA98, Metabolic Activation: NONE, Method: STANDARD PLATE) is “inactive; negative”. For the same compound, the mutagenic call is “inactive; negative” (Test System: AMES SALMONELLA TYPHIMURIUM, Strain/Indicator: TA98, Metabolic Activation: RAT, LIVER, S-9 (10%), AROCLOR 1254, Method: PREINCUBATION); “inactive; negative” (Test System: AMES SALMONELLA TYPHIMURIUM, Strain/Indicator: TA98, Metabolic Activation: RAT, LIVER, S-9 (30%), AROCLOR 1254, Method: PREINCUBATION); “inactive; negative” (Test System: AMES SALMONELLA TYPHIMURIUM, Strain/Indicator: TA98, Metabolic Activation: RAT, LIVER, S-9, AROCLOR 1254, Method: STANDARD PLATE); “inactive; negative” (Test System: AMES SALMONELLA TYPHIMURIUM, Strain/Indicator: TA100, Metabolic Activation: HAMSTER, LIVER, S-9 (10%), AROCLOR 1254, Method: PREINCUBATION); “inactive; negative” (Test System: AMES SALMONELLA TYPHIMURIUM, Strain/Indicator: TA100, Metabolic Activation: HAMSTER, LIVER, S-9 (30%), AROCLOR 1254, Method: PREINCUBATION); “inactive; negative” (Test System: AMES SALMONELLA TYPHIMURIUM, Strain/Indicator: TA100, Metabolic Activation: HAMSTER, LIVER, S-9, AROCLOR 1254, Method: STANDARD PLATE). For the same compound, the mutagenic call reads like this: (Test System: AMES SALMONELLA TYPHIMURIUM, Strain/Indicator: TA100, Metabolic Activation: NONE, Method: PREINCUBATION) “inactive; negative; precipitation occurred at 333 ug/plate”; under setting [1], “inactive; negative”; (Test System: AMES SALMONELLA TYPHIMURIUM, Strain/Indicator: TA100, Metabolic Activation: RAT, LIVER, S-9 (10%), AROCLOR 1254, Method: PREINCUBATION) “inactive; negative”; (Test System: AMES SALMONELLA TYPHIMURIUM, Strain/Indicator: TA100, Metabolic Activation: RAT, LIVER, S-9 (30%), AROCLOR 1254, Method: PREINCUBATION) “inactive; negative”; (Test System: AMES SALMONELLA TYPHIMURIUM, Strain/Indicator: TA100, Metabolic Activation: RAT, LIVER, S-9, AROCLOR 1254, Method: STANDARD PLATE) “inactive; negative”; (Test System: AMES SALMONELLA TYPHIMURIUM, Strain/Indicator: TA1535, Metabolic Activation: HAMSTER, LIVER, S-9 (10%), AROCLOR 1254, Method: PREINCUBATION) “inactive; negative”. Further, the mutagenic call (Test System: AMES SALMONELLA TYPHIMURIUM, Strain/Indicator: TA1535, Metabolic Activation: HAMSTER, LIVER, S-9 (30%), AROCLOR 1254, Method: PREINCUBATION) was “inactive; negative”; the mutagenic call (Test System: AMES SALMONELLA TYPHIMURIUM, Strain/Indicator: TA1535, Metabolic Activation: HAMSTER, LIVER, S-9, AROCLOR 1254, Method: STANDARD PLATE) was “inactive; negative”; the mutagenic call (Test System: AMES SALMONELLA TYPHIMURIUM, Strain/Indicator: TA1535, Metabolic Activation: NONE, Method: PREINCUBATION) was “inactive; negative”; the mutagenic call (Test System: AMES SALMONELLA TYPHIMURIUM, Strain/Indicator: TA1535, Metabolic Activation: NONE, Method: STANDARD PLATE) is “inactive; negative”; the mutagenic call (Test System: AMES SALMONELLA TYPHIMURIUM, Strain/Indicator: TA1535, Metabolic Activation: RAT, LIVER, S-9 (10%), AROCLOR 1254, Method: PREINCUBATION) was “inactive; negative”; the mutagenic call (Test System: AMES SALMONELLA TYPHIMURIUM, Strain/Indicator: TA1535, Metabolic Activation: RAT, LIVER, S-9 (30%), AROCLOR 1254, Method: PREINCUBATION) was “inactive; negative”. In addition, the mutagenic call reads like this: (Test System: AMES SALMONELLA TYPHIMURIUM, Strain/Indicator: TA1535, Metabolic Activation: RAT, LIVER, S-9, AROCLOR 1254, Method: STANDARD PLATE) “inactive; negative”; (Test System: AMES SALMONELLA TYPHIMURIUM, Strain/Indicator: TA1537, Metabolic Activation: HAMSTER, LIVER, S-9, AROCLOR 1254, Method: STANDARD PLATE) “inactive; negative”; (Test System: AMES SALMONELLA TYPHIMURIUM, Strain/Indicator: TA1537, Metabolic Activation: NONE, Method: STANDARD PLATE) “inactive; negative”; (Test System: AMES SALMONELLA TYPHIMURIUM, Strain/Indicator: TA1537, Metabolic Activation: RAT, LIVER, S-9, AROCLOR 1254, Method: STANDARD PLATE) “inactive; negative”; (Test System: AMES SALMONELLA TYPHIMURIUM, Strain/Indicator: TA1538, Metabolic Activation: HAMSTER, LIVER, S-9, AROCLOR 1254, Method: STANDARD PLATE) “inactive; negative”; (Test System: AMES SALMONELLA TYPHIMURIUM, Strain/Indicator: TA1538, Metabolic Activation: NONE, Method: STANDARD PLATE) “inactive; negative”. Further, the mutagenic call (Test System: AMES SALMONELLA TYPHIMURIUM, Strain/Indicator: TA1538, Metabolic Activation: RAT, LIVER, S-9, AROCLOR 1254, Method: STANDARD PLATE) was “inactive; negative”; the mutagenic call (Test System: MOUSE LYMPHOMA, Strain/Indicator: L5178Y (TK+/TK-), Metabolic Activation: NONE, Method: SUSPENSION/PLATE) was “inactive; negative. reevaluation of results: negative”; the mutagenic call (Test System: MOUSE LYMPHOMA, Strain/Indicator: L5178Y (TK+/TK-), Metabolic Activation: RAT, LIVER, S-9, AROCLOR 1254, Method: SUSPENSION/PLATE) was “inactive; negative. reevaluation of results: negative”.
With `c1cnc2c(c1)[C@@H]1O[C@@H]1C1OC21` (stereo partly drawn), the mutagenic call by setting is: under setting [1], “inactive; negative”; (Test System: AMES SALMONELLA TYPHIMURIUM, Strain/Indicator: TA100, Metabolic Activation: RAT, LIVER, S-9, AROCLOR 1254 (10% OR 20%), Method: STANDARD PLATE) “inactive; negative”.
Regarding `O=CNc1ccc(Oc2ccc(Cl)cc2)cc1`, the mutagenic call by setting is: under setting [1], “inactive; negative”; (Test System: AMES SALMONELLA TYPHIMURIUM, Strain/Indicator: TA100, Metabolic Activation: RAT, LIVER, S-9, KANECLOR 500, Method: STANDARD PLATE) “active; positive”.
